Values of other authors in patent US20230346830A1 (priority 2020, published 2023).
Read-outs that look alike come from different tables or passages of the source.

What was measured:
[1] = test system: SARS CoV
[2] = test system: severe acute respiratory syndrome SARS; conditions: in vivo
[3] = test system: broad range of microorganisms; conditions: no less than 160 ppm, five hours of continuous exposure
[4] = 160 ppm for 30 min every 3.5 hours, intermittent
[5] = test system: influenza WSN/33

SMILES | replication cycle of SARS CoV [1] | arterial oxygen saturation [2] | lung infiltrates [2] | antimicrobial response in vitro [3] | methemoglobinemia [4] | survival of infected mice ([5]; administered prophylactically or post-influenza infection, 80 ppm continuous or 160 ppm intermittent) | lung viral load between experimental groups ([5]; influenza-infected mice) | effect on the virus ([5]; influenza-infected mice, continuously at 80 ppm or intermittently at 160 ppm for 30 minutes followed by 3½ hours of breathing air) | inhibition of the virus replication cycle compared with cytokine treatment ([1]; 50 μM SNAP) | reduction in the yield of progeny virus ([1]; 100 μM SNAP) | viral RNA production ([1]; 400 μM SNAP) | inhibitory effect on yield of progeny virus ([1]; 400 μM SNAP, compared with 100 μM) | replication cycle of SARS CoV ([1]; concentration-dependent)
[N]=O [NO, Nitric oxide] | specifically inhibits | improved | decreased the spread and intensity | non-specific antimicrobial response | could prevent methemoglobinemia | failed to improve survival | No difference | no effect |  |  |  |  | 
CC(=O)N[C@H](C(=O)O)C(C)(C)SN=O (racemic) [SNAP, S-nitroso-N-acetylpenicillamine] |  |  |  |  |  |  |  |  | same level of inhibition | 2 log | significantly inhibited | even more pronounced | significantly inhibited
